Legend:
breast cancer cells MCF7 = assay: inline-DHM cytometry for drug response analysis; assay type: cell-based
Description: Briefly, as shown in FIG. 1A the in-line DHM arrangement consists of a laser, a spatial filter and collimator assembly, and an inverted optical microscope (IX-71, Olympus Inc.). A He—Ne laser (10 mW, λ, =0.6328 μm, Thorlabs) is used as a light source, operating in continuous wave (CW) mode. The laser beam is filtered and expanded by a spatial filter assembly consisting of a microscope objective (10×, NA=0.25; Thorlabs) and a pinhole (25 μm diameter). The expanded beam is then collimated using a plano-convex lens (focal length, f=100 mm, Thorlabs). The diameter of the collimated beam is approximately 5 mm. This collimated beam of laser light illuminates cells or beads flowing in the microfluidic channel. The flow through the channel is generated by a syringe pump (KD Scientific). The cross-sectional dimensions of the channel are 1000(y)×350(z) μm^2. The 2D hologram of cells or beads is generated in the focal plane of the microscope objective (M=10×, NA=0.25; Thorlabs) of the optical microscope. The magnified image of the hologram is recorded on a CMOS camera (Phantom v310, Vision Research) at a resolution of 512×512 (20 μm/pixel) and 12-bit gray level quantization.
The recoded holograms were transferred to a computer for numerical reconstruction and data analysis.
The probability distribution corresponding to maximum intensity (Imax) of center pixel of focused image of breast cancer cells (MCF7) at different doses of doxorubicin (FIG. 9A) 0.0 μM, (FIG. 9B) 0.0001 μM, (FIG. 9C) 0.01 μM, and (FIG. 9D) 0.1 μM.

[1] = test system: breast cancer cell line MCF-7; assay: dose-dependent cytotoxicity, viability analysis using standard epifluorescence microscopy; assay type: cell-based; details: FIG. 8B
Description: The method involves using a microfluidic device with multiple inlets to flow different samples adjacent to each other as shown in FIG. 8A. Since the flow is laminar, there is no mixing and identity of each sample is encoded spatially into the microfluidic device. Integrating DHM into this multi-inlet device, the inventors can capture holograms where each hologram contains information of the multiple samples that are spatially segregated. […] FIG. 8A is an image showing a multiple entry microfluidic device for parallel loading of multiple samples. Red arrows indicate the recording window for DHM cytometry for drug response analysis. […] For example, in drug screening there is a need to conduct dose response analysis where different drug concentrations are used to test their impact on the viability of cells (see FIG. 8B for viability analysis using standard fluorescence imaging). To achieve parallel analysis, cells treated with different doses of drug can be introduced into the multi-inlet device and label-free DHM can be used to obtain dose-response curves. Cell culture and drug treatment can also be conducted in the inlet wells of the device or additional microfluidic devices can be daisy-chained prior to DHM interrogation.

COc1cccc2c1C(=O)c1c(O)c3c(c(O)c1C2=O)C[C@@](O)(C(=O)CO)C[C@@H]3O[C@H]1C[C@H](N)[C@H](O)[C@H](C)O1 [doxorubicin]
maximum intensity (Imax) distribution of focused cell image (breast cancer cells MCF7; MCF-7 cells treated with 0.0001 μM doxorubicin, FIG. 9B): some are affected and their peak intensity shifts to lower values
maximum intensity (Imax) distribution of focused cell image (breast cancer cells MCF7; MCF-7 cells treated with 0.01 μM doxorubicin, FIG. 9C): the number of cells showing lower intensity (Imax) increases
maximum intensity (Imax) distribution of focused cell image (breast cancer cells MCF7; MCF-7 cells treated with 0.1 μM doxorubicin, FIG. 9D): the number of cells showing lower intensity (Imax) increases
cytotoxicity (viability of cells) [1]: dose-dependent cytotoxicity
